Data taken from PMC12627862, “Therapeutic targeting of endothelial calcium signaling accelerates the resolution of lung injury” (Signal Transduction and Targeted Therapy, 2025).
Starred links: 1 amine or outer side, 2 acyl side, 3 side chain; linkers in the order of their positions; H or OH if unused. Positions of bridges follow the written chain, without caps; N, C: chain ends. Non-standard residues stand in square brackets, D forms with d. Residues, ends and D or L forms follow the SMILES beside them. *: point of attachment. Leu(4,5-dehydro) = C=C(C)C[C@H](N)C(=O)O; Oic = O=C(O)[C@@H]1C[C@@H]2CCCC[C@@H]2N1; d(tBuAla) = CC(C)(C)C[C@@H](N)C(=O)O; R5 = C=CCCC[C@@](C)(N)C(=O)O; S5 = C=CCCC[C@](C)(N)C(=O)O; X1 = O=C(CC(O)CN[*:1])[*:2]; 4Amb = NCc1ccc(C(=O)O)cc1; X3 = NCC(O)CC(=O)*

Experiments:
[1] = Aggregation / solubility at 1 mM; type: physicochemical; conditions: summary calls it solubility at 1mM
Outline: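 Solubility and aggregation of compounds were assessed experimentally at 1 mM. Lipophilicity was determined as octanol/water partition coefficient, logP(oct/wat).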

[2] = Stability of selected EB3 inhibitors in human blood plasma; type: in vitro ADME; conditions: human plasma, 37 °C, perchloric acid (60%) precipitation, LC-MS/MS, read-out: compound remaining in human plasma
Experimental: Supplementary Table 3. Stability of selected EB3 inhibitors in human blood plasma. The indicated inhibitors were incubated with human plasma at 37 °C and samples were taken at the indicated time points. Plasma proteins were precipitated with ice-cold perchloric acid (60%); the concentration of compounds was measured in supernatant using a liquid chromatography-tandem mass spectrometry (LC-MS/MS). See also Figures 1 and 2.

[3] = Stability at various storage conditions; type: physicochemical; conditions: phosphate-buffered sterile saline, 8 days, LC-MS/MS
Experimental: Stability assay of peptides in various storage conditions. Peptides were dissolved and stored in phosphate-buffered sterile saline at -20, 4, 37, and 60°C for 8 days. The amount of peptide remaining after the study was analyzed by LC-MS/MS.
Supplementary Table 5. Stability of selected compounds at various storage conditions. Preliminary accelerated storage stability at various temperature conditions for the selected inhibitors was tested in phosphate-buffered sterile saline at -20 °C, 4 °C, 37 °C and 60 °C for 8 days. See also Figures 1 and 2.

[4] = tested on: human primary microvascular lung endothelial cells (HLMVECs); experiment: Peptide uptake in endothelial cells; type: cell-based; conditions: 5’6-FAM-labeled compounds, HLMVECs
Experimental: We next analyzed the cell-penetrating properties of the selected compounds, hereafter referred to as vascular therapeutics (VT). The rate of uptake of 5’6-FAM (fluorescein)-labeled compounds by human primary microvascular lung endothelial cells (HLMVECs) was determined via confocal fluorescence live-cell imaging. FAM-labeled Myr-EBIN[13] and fluorescein alone were used as positive and negative controls, respectively. The t½ uptake and maximal uptake were determined from changes in the integrated fluorescence intensity over a 30 min period (Fig. 2a and Supplementary Fig. 1a). […] Like Myr-EBIN, compounds VT-107, -108 and -109 presented the highest uptake rates of 92.5 ± 5.0%, 82.5 ± 2.8% and 94.7 ± 4.9%, respectively, whereas the linear compound VT-101 was taken up less efficiently, with an average uptake of 58.4 ± 2.7% (Fig. 2a). […] The t½ uptake, however, varied between the tested compounds (Fig. 2b). The stapled compounds presented the shortest t½ uptake, whereas the linear compounds presented the longest t½ (Fig. 2b).
Peptide uptake in endothelial cells. The rate of peptide uptake by primary human microvascular endothelial cells was measured using 5’6FAM (fluorescein)-labeled peptides and confocal fluorescence live-cell imaging, with fluorescein alone used as a negative control. Changes in intracellular fluorescence for each peptide were monitored over time, and saponin, a detergent, was added at the end of the experiment to induce full uptake of the tested peptides by endothelial cells. The fluorescence intensity inside the cells was tracked over time, and the half-time uptake (t1/2) and maximum uptake were calculated.

[5] = target: EB3 interactions with IP3R3-GFP (Homo sapiens, UniProt Q9UPY8); experiment: Competitive binding: inhibition of EB3 interaction with IP3R3-GFP in vitro; type: biochemical; conditions: 250 nM
Sequence of EB3 interactions with IP3R3-GFP (Q9UPY8 whole entry): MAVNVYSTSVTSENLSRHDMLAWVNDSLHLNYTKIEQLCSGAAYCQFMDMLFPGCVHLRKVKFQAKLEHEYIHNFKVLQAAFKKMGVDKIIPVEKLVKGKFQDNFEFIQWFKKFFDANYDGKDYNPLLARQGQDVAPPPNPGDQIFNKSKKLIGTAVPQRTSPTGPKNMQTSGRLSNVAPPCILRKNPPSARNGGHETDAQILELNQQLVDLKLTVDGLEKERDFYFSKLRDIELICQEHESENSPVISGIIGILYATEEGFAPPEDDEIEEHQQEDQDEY
Text: We tested the efficacy of twenty-three compounds in inhibiting EB3 interactions with IP3R3-GFP via an in vitro approach developed by us[12],[13]. […] Guided by NMR studies, we predicted the binding pose of 109 to EB3 via AutoDock Vina[13],[24],[25].

[6] = Lipophilicity of peptides, logP(oct/wat); type: physicochemical; conditions: shake-flask n-octanol/phosphate buffer, mutually saturated, shaken 1 hour at room temperature; read-out: Log P (Octanol/Water)
Outline: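 Shake-flask partition between n-octanol and phosphate buffer, each phase pre-saturated with the other; peptides dissolved in buffer, partitioned at several octanol:water ratios, shaken 1 h at room temperature. After equilibration both phases assayed for peptide; logP = log(octanol/water concentration ratio).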

## C=C(C)C[C@@H]1NC(=O)[C@](C)(NC(=O)c2ccc(CNC(=O)CC(O)CN)cc2)CCC/C=C\CCC[C@@](C)(C(=O)N[C@H](CC(C)(C)C)C(=O)O)NC(=O)CC(O)CNC(=O)[C@@H]2C[C@@H]3CCCC[C@@H]3N2C1=O (stereo partly drawn) [compound 107, (2R)-2-((8S,17R,20S,22aS,26aS,27aS,Z)-17-(4-((4-amino-3-hydroxybutanamido)methyl)benzamido)-4-hydroxy-8,17-dimethyl-20-(2-methylallyl)-1,6,18,21-tetraoxo 2,3,4,5,6,7,8,9,10,11,14,15,16,17,18,19,20,21,22a,23,24,25,26,26a,27,27a-hexacosahydro-1H-[1,4,7,12]tetraazacyclotricosino[4,5-a]indole-8-carboxamido)-4,4-dimethylpentanoic acid] ({X3-4Amb}-[R5][Leu(4,5-dehydro)][Oic][X1][S5][d(tBuAla)]-OH; staple (Z) 1-5)
[1]
  Aggregation at 1mM: weak signal
[2]; 1.5 hr
  remaining at 1.5 h: 87%
[2]; 20 hr
  remaining at 20 h: 65%
[3]; 4 °C
  amount of peptide remaining after storage: 88%
[3]; 37 °C
  amount of peptide remaining after storage: 85%
[3]; 60 °C
  amount of peptide remaining after storage: 85%
[3]; -20 °C
  amount of peptide remaining after storage: 94%
[4]; confocal live-cell imaging over 30 min, mean ± SEM, n = 16–45 cells per group
  uptake, percentage of the maximal values obtained following saponin treatment: 92.5 ± 5.0%
[4]; confocal live-cell imaging, n = 3 independent experiments
  half-time uptake t1/2: 12.6 ± 24 s
[4]; no cell internalization signal
  penetration of the cell membrane: able to penetrate the cell membrane without the addition of a cell internalization signal
[5]
  inhibition at 0.25 µM: 65%
[6]
  logD: 0.51
